According to publication PMC6541917 (Journal of medicinal chemistry, 2018):

Columns and labels:
HIV-1NL4–3 [1] = test: antiviral p24 Gag assay in MT-4 cells, wild-type virus; type: cell-based; conditions: Human immunodeficiency virus 1, MT4, read-out: mean IC50 ± SD
MT-4 cells = conditions: ratio of CC50 to IC50
in vitro = conditions: human
HIV-1NL4–3 [2] = test: antiviral assay in MT-4 human T-lymphocytes exposed to HIV-1NL4–3; type: cell-based; conditions: Human immunodeficiency virus 1, MT4, in Homo sapiens, read-out: antiviral IC50
HIV-1ATV^R5μM = type: cell-based; conditions: HIV-1ATV^R5μM compared to wild-type HIV-1NL4–3
HIV-1APV^R5 μM = type: cell-based; conditions: HIV-1APV^R5 μM compared to wild-type HIV-1NL4–3
HIV-1LPV^R5μM = type: cell-based; conditions: HIV-1LPV^R5μM compared to wild-type HIV-1NL4–3
[3] = tested on: multidrug-resistant HIV-1 variants; test: microbe, parasite or virus in culture; type: cell-based; conditions: Human immunodeficiency virus 1, read-out: antiviral IC50, range over variants

Row | Compound | IC50 (HIV-1NL4–3 [1]) [nM] | selectivity index (MT-4 cells) | IC50 fold-change (in parentheses) (HIV-1ATV^R5μM) | IC50 fold-change (in parentheses) (HIV-1APV^R5 μM) | other results
1 | CC(C)CN(C[C@@H](O)[C@H](Cc1ccccc1)NC(=O)O[C@H]1CO[C@H]2OCC[C@H]21)S(=O)(=O)c1ccc(N)cc1 [DRV, darunavir, reference compound] | 3.5 ± 0.09 | – | – | – | –
2 | COc1ccc(S(=O)(=O)N(CC(C)C)C[C@@H](O)[C@H](Cc2ccccc2)NC(=O)O[C@@H]2C[C@@H]3NC(=O)O[C@@H]3C2)cc1 [Inhibitor 4a, (3aS,5R,6aR)-2-Oxohexahydro-2H-cyclopenta[d]oxazol-5-yl ((2S,3R)-3-Hydroxy-4-((N-isobutyl-4-methoxyphenyl)-sulfonamido)-1-phenylbutan-2-yl)carbamate] | – | >2070 | – | – | –
3 | COc1ccc(S(=O)(=O)N(CC(C)C)C[C@@H](O)[C@H](Cc2ccccc2)NC(=O)O[C@H]2C[C@H]3OC(=O)N(C)[C@H]3C2)cc1 [Inhibitor 4c, (3aS,5R,6aR)-3-Methyl-2-oxohexahydro-2H-cyclopenta[d]-oxazol-5-yl ((2S,3R)-3-Hydroxy-4-((N-isobutyl-4-methoxyphenyl)sulfonamido)-1-phenylbutan-2-yl)carbamate] | – | >2778 | – | – | CC50 (in vitro): > 100000 nM
4 | COc1ccc(S(=O)(=O)N(CC(C)C)C[C@@H](O)[C@H](Cc2ccccc2)NC(=O)O[C@@H]2C[C@@H]3OC(=O)N(C)[C@@H]3C2)cc1 [Inhibitor 4d, (3aR,5S,6aS)-3-Methyl-2-oxohexahydro-2H-cyclopenta[d]-oxazol-5-yl ((2S,3R)-3-Hydroxy-4-((N-isobutyl-4-methoxyphenyl)sulfonamido)-1-phenylbutan-2-yl)carbamate] | – | >229 | – | – | –
5 | C=C(C)CN1C(=O)O[C@@H]2C[C@H](OC(=O)N[C@@H](Cc3ccccc3)[C@H](O)CN(CC(C)C)S(=O)(=O)c3ccc(OC)cc3)C[C@@H]21 [Inhibitor 4k, (3aS,5R,6aR)-3-(2-Methylallyl)-2-oxohexahydro-2H-cyclopenta[d]oxazol-5-yl ((2S,3R)-3-Hydroxy-4-((N-isobutyl-4-methoxyphenyl)sulfonamido)-1-phenylbutan-2-yl)carbamate] | 23 ± 0.1 | >3226 | 1 | 11 | IC50 (HIV-1NL4–3 [2]): 31 nM
6 | COc1ccc(S(=O)(=O)N(CC(C)C)C[C@@H](O)[C@H](Cc2ccccc2)NC(=O)O[C@H]2C[C@H]3OC(=O)N(CC(C)C)[C@H]3C2)cc1 [Inhibitor 4l, (3aS,5R,6aR)-3-Isobutyl-2-oxohexahydro-2H-cyclopenta[d]-oxazol-5-yl ((2S,3R)-3-Hydroxy-4-((N-isobutyl-4-methoxyphenyl)sulfonamido)-1-phenylbutan-2-yl)carbamate] | – | >2439 | 1 | 7 | IC50 fold-change (in parentheses) (HIV-1LPV^R5μM): 15; IC50 [3]: 33 to 615 nM
